Results reported in PubChem BioAssay (NCI).
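A five-concentration, 48-hour dose response in 96-well plates underlies each endpoint, interpolated linearly between surrounding concentrations. GI50 marks 50% less growth. The concentration for full growth arrest is given as TGI.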

Tests used:
Test in all cases: NCI tumour cell line growth inhibition, 48 h
[1] = tested on: TK-10 renal
[2] = tested on: MCF7 breast
[3] = tested on: HOP-92 NSCLC
[4] = tested on: NCI-H460 lung
[5] = tested on: RPMI-8226 leukemia
[6] = tested on: SW-620 colon
[7] = tested on: HOP-62 NSCLC
[8] = tested on: UO-31 renal
[9] = tested on: RXF 393 renal
[10] = tested on: DU-145 prostate
[11] = tested on: EKVX NSCLC
[12] = tested on: M14 melanoma
[13] = tested on: MDA-MB-468 breast
[14] = tested on: NCI-H522 lung
[15] = tested on: SF-295 CNS
[16] = tested on: SF-539 CNS
[17] = tested on: T-47D breast
[18] = tested on: A498 renal
[19] = tested on: SK-MEL-28 melanoma
[20] = tested on: U251 CNS
[21] = tested on: SR leukemia
[22] = tested on: ACHN renal
[23] = tested on: UACC-62 melanoma
[24] = tested on: SNB-75 CNS
[25] = tested on: IGROV1 ovarian
[26] = tested on: SF-268 CNS
[27] = tested on: UACC-257 melanoma
[28] = tested on: MDA-MB-435
[29] = tested on: OVCAR-4 ovarian
[30] = tested on: NCI-H226 lung
[31] = tested on: CCRF-CEM leukemia
[32] = tested on: BT-549 breast
[33] = tested on: LOX IMVI melanoma
[34] = tested on: SK-MEL-5 melanoma
[35] = tested on: NCI-H23 lung
[36] = tested on: OVCAR-5 ovarian
[37] = tested on: HS 578T breast
[38] = tested on: KM12 colon
[39] = tested on: HCT-15 colon
[40] = tested on: MOLT-4 leukemia
[41] = tested on: K-562 leukemia
[42] = tested on: SK-MEL-2 melanoma
[43] = tested on: A549 NSCLC
[44] = tested on: OVCAR-8 ovarian
[45] = tested on: SN12C renal
[46] = tested on: OVCAR-3 ovarian
[47] = tested on: MDA-MB-231 breast
[48] = tested on: HL-60(TB) leukemia
[49] = tested on: HCC-2998 colon
[50] = tested on: SNB-19 CNS
[51] = tested on: NCI/ADR-RES ovarian
[52] = tested on: HCT-116 colon
[53] = tested on: CAKI-1 renal
[54] = tested on: MALME-3M melanoma
[55] = tested on: SK-OV-3 ovarian
[56] = tested on: PC-3 prostate
[57] = tested on: HT29 colon
[58] = tested on: 786-0 renal
[59] = tested on: COLO 205 colon

Compound `CCN1CCN(Cc2ccc(C(=O)Nc3cccc(Nc4ccc5c(OC)cccc5n4)c3)cc2C(F)(F)F)CC1` has a GI50 [1] of 8.67 µM, a TGI [1] of 22.1 µM and a GI50 [2] of 1.5 µM. The TGI [2] was 3.5 µM, the GI50 [3] was 1.58 µM and the TGI [3] was 5.27 µM. The GI50 [4] was 1.47 µM, the TGI [4] was 2.8 µM and the GI50 [5] was 2.24 µM. It also gave a TGI [5] of 6.67 µM, a GI50 [6] of 1.45 µM and a TGI [6] of 2.73 µM. It also gave a GI50 [7] of 3.67 µM, a TGI [7] of 17.6 µM and a GI50 [8] of 2.33 µM. For the same compound, the TGI [8] was 9.27 µM, the GI50 [9] was 1.63 µM and the TGI [9] was 5 µM. It also gave a GI50 [10] of 2.55 µM, a TGI [10] of 9.25 µM and a GI50 [11] of 4.06 µM. The TGI [11] was 15.3 µM, the GI50 [12] was 1.47 µM and the TGI [12] was 2.72 µM. The GI50 [13] was 1.6 µM, the TGI [13] was 4.53 µM and the GI50 [14] was 1.7 µM. The TGI [14] was 3.3 µM, the GI50 [15] was 1.52 µM and the TGI [15] was 2.97 µM. It also gave a GI50 [16] of 1.37 µM, a TGI [16] of 2.54 µM and a GI50 [17] of 2.11 µM. It also gave a TGI [17] of 8.14 µM, a GI50 [18] of 11.8 µM and a TGI [18] of 24.9 µM. The GI50 [19] was 1.56 µM, the TGI [19] was 2.87 µM and the GI50 [20] was 1.69 µM. For the same compound, the TGI [20] was 3.47 µM, the GI50 [21] was 1.87 µM and the TGI [21] was 4.67 µM. For the same compound, the GI50 [22] was 1.85 µM, the TGI [22] was 4.32 µM and the GI50 [23] was 1.53 µM. The TGI [23] was 2.83 µM, the GI50 [24] was 1.2 µM and the TGI [24] was 8.39 µM. For the same compound, the GI50 [25] was 3.09 µM, the TGI [25] was 11.2 µM and the GI50 [26] was 2.17 µM. It also gave a TGI [26] of 9.91 µM, a GI50 [27] of 1.51 µM and a TGI [27] of 2.85 µM. For the same compound, the GI50 [28] was 1.36 µM, the TGI [28] was 2.82 µM and the GI50 [29] was 2.89 µM. For the same compound, the TGI [29] was 13 µM, the GI50 [30] was 5.52 µM and the TGI [30] was 18.3 µM. For the same compound, the GI50 [31] was 1.97 µM, the TGI [31] was 5.38 µM and the GI50 [32] was 5.35 µM. The TGI [32] was 17.4 µM, the GI50 [33] was 1.45 µM and the TGI [33] was 2.65 µM. For the same compound, the GI50 [34] was 1.45 µM, the TGI [34] was 2.78 µM and the GI50 [35] was 2.37 µM. For the same compound, the TGI [35] was 7.03 µM, the GI50 [36] was 3.28 µM and the TGI [36] was 12.7 µM. The GI50 [37] was 1.96 µM, the TGI [37] was 6.98 µM and the GI50 [38] was 2.2 µM. The TGI [38] was 5.62 µM, the GI50 [39] was 1.58 µM and the TGI [39] was 3.29 µM. It also gave a GI50 [40] of 1.23 µM, a TGI [40] of 5.05 µM and a GI50 [41] of 2.11 µM. It also gave a TGI [41] of 86.8 µM, a GI50 [42] of 10.7 µM and a TGI [42] of 23.8 µM. For the same compound, the GI50 [43] was 2.5 µM, the TGI [43] was 11.4 µM and the GI50 [44] was 6.78 µM. It also gave a TGI [44] of 18.4 µM, a GI50 [45] of 3.62 µM and a TGI [45] of 14.8 µM. For the same compound, the GI50 [46] was 1.8 µM, the TGI [46] was 4.58 µM and the GI50 [47] was 1.54 µM. It also gave a TGI [47] of 3.05 µM, a GI50 [48] of 1.57 µM and a TGI [48] of 4.84 µM. For the same compound, the GI50 [49] was 1.59 µM, the TGI [49] was 2.89 µM and the GI50 [50] was 1.65 µM. For the same compound, the TGI [50] was 3.62 µM, the GI50 [51] was 2.28 µM and the TGI [51] was 9.03 µM. For the same compound, the GI50 [52] was 1.45 µM, the TGI [52] was 2.64 µM and the GI50 [53] was 1.46 µM. The TGI [53] was 3.19 µM, the GI50 [54] was 1.44 µM and the TGI [54] was 2.63 µM. It also gave a GI50 [55] of 12.6 µM, a TGI [55] of 27.2 µM and a GI50 [56] of 2.14 µM. It also gave a TGI [56] of 6.26 µM.
In the case of `COc1ccc2[nH]c(=O)c(CSc3ccccc3Nc3nccc(-c4ccc(C(F)(F)F)cc4)n3)cc2c1`, the GI50 [1] is reported as 17.4 µM, the TGI [1] is reported as 31.2 µM and the GI50 [2] is reported as 2.97 µM. It also gave a TGI [2] of 11 µM, a GI50 [3] of 2.2 µM and a TGI [3] of 17.3 µM. The GI50 [4] was 4.05 µM, the TGI [4] was 14.5 µM and the GI50 [5] was 3.27 µM. The TGI [5] was 15.4 µM, the GI50 [6] was 5.43 µM and the TGI [6] was 18.2 µM. For the same compound, the GI50 [7] was 15.4 µM, the TGI [7] was 28.7 µM and the GI50 [57] was 3.64 µM. For the same compound, the TGI [57] was 12.7 µM, the GI50 [8] was 4.5 µM and the TGI [8] was 18.1 µM. The GI50 [9] was 3.03 µM, the TGI [9] was 8.62 µM and the GI50 [10] was 8.89 µM. For the same compound, the TGI [10] was 21 µM, the GI50 [11] was 10.3 µM and the TGI [11] was 22.4 µM. It also gave a GI50 [12] of 11.2 µM, a TGI [12] of 23.2 µM and a GI50 [13] of 2.65 µM. The TGI [13] was 10.2 µM, the GI50 [14] was 3.82 µM and the TGI [14] was 16.2 µM. For the same compound, the GI50 [15] was 10.1 µM, the TGI [15] was 21.6 µM and the GI50 [16] was 10.3 µM. It also gave a TGI [16] of 21.9 µM, a GI50 [17] of 5.66 µM and a TGI [17] of 20.3 µM. For the same compound, the GI50 [18] was 13.8 µM, the TGI [18] was 26.7 µM and the GI50 [19] was 11.8 µM. For the same compound, the TGI [19] was 24.1 µM, the GI50 [20] was 10.5 µM and the TGI [20] was 22.3 µM. The GI50 [58] was 6.43 µM, the TGI [58] was 19.1 µM and the GI50 [21] was 2.91 µM. The TGI [21] was 11.1 µM, the GI50 [22] was 5 µM and the TGI [22] was 16.9 µM. The GI50 [23] was 11.8 µM, the TGI [23] was 24 µM and the GI50 [24] was 12.5 µM. For the same compound, the TGI [24] was 25.5 µM, the GI50 [25] was 9.67 µM and the TGI [25] was 21.4 µM. It also gave a GI50 [26] of 5.15 µM, a TGI [26] of 18.2 µM and a GI50 [27] of 13 µM. For the same compound, the TGI [27] was 25.7 µM, the GI50 [28] was 8.95 µM and the TGI [28] was 21.1 µM. For the same compound, the GI50 [29] was 3.42 µM, the TGI [29] was 13.7 µM and the GI50 [30] was 4.76 µM. It also gave a TGI [30] of 18.8 µM, a GI50 [31] of 3.84 µM and a TGI [31] of 18.5 µM. The GI50 [32] was 6.57 µM, the TGI [32] was 19.7 µM and the GI50 [33] was 3.06 µM. For the same compound, the TGI [33] was 11.5 µM, the GI50 [34] was 10.5 µM and the TGI [34] was 22.2 µM. For the same compound, the GI50 [35] was 6.28 µM, the TGI [35] was 19.3 µM and the GI50 [36] was 13 µM. It also gave a TGI [36] of 25.7 µM, a GI50 [37] of 13.2 µM and a TGI [37] of 36.5 µM. The GI50 [38] was 5.6 µM, the TGI [38] was 17.9 µM and the GI50 [39] was 4.69 µM. The TGI [39] was 16.7 µM, the GI50 [40] was 3.59 µM and the TGI [40] was 15.7 µM. For the same compound, the GI50 [41] was 4.46 µM, the TGI [41] was 21.6 µM and the GI50 [42] was 10.8 µM. It also gave a TGI [42] of 22.7 µM, a GI50 [43] of 5.28 µM and a TGI [43] of 18.5 µM. For the same compound, the GI50 [44] was 9.59 µM, the TGI [44] was 21.4 µM and the GI50 [45] was 3.74 µM. For the same compound, the TGI [45] was 13.1 µM, the GI50 [46] was 3.48 µM and the TGI [46] was 15.2 µM. It also gave a GI50 [47] of 11.1 µM, a TGI [47] of 23.1 µM and a GI50 [59] of 11.1 µM. The TGI [59] was 23.1 µM, the GI50 [48] was 8.6 µM and the TGI [48] was 28.2 µM. For the same compound, the GI50 [49] was 5.27 µM, the TGI [49] was 18.1 µM and the GI50 [50] was 13.5 µM. For the same compound, the TGI [50] was 26.3 µM, the GI50 [51] was 4.32 µM and the TGI [51] was 17.5 µM. For the same compound, the GI50 [52] was 3.14 µM, the TGI [52] was 10.6 µM and the GI50 [53] was 9.2 µM. For the same compound, the TGI [53] was 21.2 µM, the GI50 [54] was 12 µM and the TGI [54] was 24.3 µM. It also gave a GI50 [55] of 15.8 µM, a TGI [55] of 29.3 µM and a GI50 [56] of 3.2 µM. It also gave a TGI [56] of 12.6 µM.
